Literature values as cited in PubChem BioAssay AID1259409 (Chemical Carcinogenesis Research Information System (CCRIS), 2018).

Test system: rodent chemically induced tumor inhibition, incidence and multiplicity
Experiment: CCRIS tumor inhibitor studies

SMILES: Nc1ncn[nH]1
- tumour outcome (control, treated, inhibition, significance) (Carcinogen: DIETHYLSTILBESTROL, 56-53-1, Dose [Inhibitor]: 0, 1500 PPM IN DRINKING WATER 47 D POST FIRST DOSE OF CARCINOGEN (STUDY DURATION: 6 MO), Route [Inhibitor]: ORAL, Species: RAT, Strain/Sex: WF/MALE, Target Tissue: Type of Lesion: LIVER: HEPATOCELLULAR CARCINOMA, Dose [Carcinogen]: 5 MG ONTO BACK 1/2 MO FOR 6 MO, Promoter: NONE USED): 1/9 (11%), 0/11 (0%), 100%, not calculated
- tumour outcome (control, treated, inhibition, significance) (Carcinogen: DIETHYLSTILBESTROL, 56-53-1, Dose [Inhibitor]: 0, 1500 PPM IN DRINKING WATER 47 D POST FIRST DOSE OF CARCINOGEN (STUDY DURATION: 6 MO), Route [Inhibitor]: ORAL, Species: RAT, Strain/Sex: WF/MALE, Target Tissue: Type of Lesion: PITUITARY: TUMOR, Dose [Carcinogen]: 5 MG ONTO BACK 1/2 MO FOR 6 MO, Promoter: NONE USED): 7/9 (78%), 8/11 (73%), 6%, not significant

SMILES: CC(N)C(=O)NCC(=O)NC1CSSCC(C(=O)O)NC(=O)C(CO)NC(=O)C(C(C)O)NC(=O)C(Cc2ccccc2)NC(=O)C(C(C)O)NC(=O)C(CCCCN)NC(=O)C(Cc2c[nH]c3ccccc23)NC(=O)C(Cc2ccccc2)NC(=O)C(Cc2ccccc2)NC(=O)C(CC(N)=O)NC(=O)C(CCCCN)NC1=O (stereo not given)
- tumour outcome (control, treated, inhibition, significance) (Carcinogen: N-NITROSOMORPHOLINE, 59-89-2, Dose [Inhibitor]: 0, 200 UG/KG BW 1/2 D FOR DURATION OF STUDY (STUDY DURATION: 16 WK), Route [Inhibitor]: SUBCUTANEOUS, Species: RAT, Strain/Sex: SPRAGUE-DAWLEY/MALE, Target Tissue: Type of Lesion: LIVER: HEPATOCELLULAR CARCINOMA, Dose [Carcinogen]: 175 MG/L DRINKING WATER FOR 8 WK, Promoter: NONE USED): 8/25 (32%), 4/25 (16%), 50%, not significant

SMILES: Cc1ccc(-c2cc(C(F)(F)F)nn2-c2ccc(S(N)(=O)=O)cc2)cc1
- tumour outcome (control, treated, inhibition, significance) (Carcinogen: N-BUTYL-N-N(4-4-HYDROXYBUTYL)-NITROSAMINE [3817-11-6], Dose [Inhibitor]: 200 MG/KG IN DIET FOR 36 WK BEGINNING 1 WK PRIOR TO FIRST CARCINOGEN DOSE (STUDY DURATION: 36 WK), Route [Inhibitor]: ORAL, Species: MOUSE, Strain/Sex: B6D2F1/MALE, Target Tissue: Type of Lesion: URINARY BLADDER: TUMOR, Dose [Carcinogen]: 7.5 MG IN 0.1 ML 20% ETHANOL 1X/WK FOR 12 WK (STUDY DURATION: 36 WK), Promoter: NONE): 51%, 29%, 43%, significance level not shown
- tumour outcome (control, treated, inhibition, significance) (Carcinogen: N-BUTYL-N-N(4-4-HYDROXYBUTYL)-NITROSAMINE [3817-11-6], Dose [Inhibitor]: 500 MG/KG IN DIET FOR 27 WK BEGINNING 1 WK POST LAST CARCINOGEN DOSE (STUDY DURATION: 8 MONTHS), Route [Inhibitor]: ORAL, Species: RAT, Strain/Sex: F344/FEMALE, Target Tissue: Type of Lesion: URINARY BLADDER: TUMOR, Dose [Carcinogen]: 150 MG IN 0.5 ML 20% ETHANOL 2X/WK FOR 8 WK (STUDY DURATION: 8 MONTHS), Promoter: NONE): 57%, 4%, 93%, significance level not shown
- tumour outcome (control, treated, inhibition, significance) (Carcinogen: N-BUTYL-N-N(4-4-HYDROXYBUTYL)-NITROSAMINE [3817-11-6], Dose [Inhibitor]: 500 MG/KG IN DIET FOR 36 WK BEGINNING 1 WK PRIOR TO FIRST CARCINOGEN DOSE (STUDY DURATION: 36 WK), Route [Inhibitor]: ORAL, Species: MOUSE, Strain/Sex: B6D2F1/MALE, Target Tissue: Type of Lesion: URINARY BLADDER: TUMOR, Dose [Carcinogen]: 7.5 MG IN 0.1 ML 20% ETHANOL 1X/WK FOR 12 WK (STUDY DURATION: 36 WK), Promoter: NONE): 51%, 24%, 53%, significance level not shown
- tumour outcome (control, treated, inhibition, significance) (Carcinogen: N-BUTYL-N-N(4-4-HYDROXYBUTYL)-NITROSAMINE [3817-11-6], Dose [Inhibitor]: 500 MG/KG IN DIET FOR 36 WK BEGINNING 1 WK PRIOR TO FIRST CARCINOGEN DOSE (STUDY DURATION: 36 WK), Route [Inhibitor]: ORAL, Species: RAT, Strain/Sex: F344/FEMALE, Target Tissue: Type of Lesion: URINARY BLADDER: TUMOR, Dose [Carcinogen]: 150 MG IN 0.5 ML 20% ETHANOL 2X/WK FOR 8 WK (STUDY DURATION: 36 WK), Promoter: NONE): 17/30 (57%), 4/28 (14%), 75%, significance level not shown
- tumour outcome (control, treated, inhibition, significance) (Carcinogen: N-BUTYL-N-N(4-4-HYDROXYBUTYL)-NITROSAMINE [3817-11-6], Dose [Inhibitor]: 1000 MG/KG IN DIET FOR 27 WK BEGINNING 1 WK POST LAST CARCINOGEN DOSE (STUDY DURATION: 8 MONTHS), Route [Inhibitor]: ORAL, Species: RAT, Strain/Sex: F344/FEMALE, Target Tissue: Type of Lesion: URINARY BLADDER: TUMOR, Dose [Carcinogen]: 150 MG IN 0.5 ML 20% ETHANOL 2X/WK FOR 8 WK (STUDY DURATION: 8 MONTHS), Promoter: NONE): 57%, 0%, 100%, significance level not shown
- tumour outcome (control, treated, inhibition, significance) (Carcinogen: N-BUTYL-N-N(4-4-HYDROXYBUTYL)-NITROSAMINE [3817-11-6], Dose [Inhibitor]: 1000 MG/KG IN DIET FOR 36 WK BEGINNING 1 WK PRIOR TO FIRST CARCINOGEN DOSE (STUDY DURATION: 36 WK), Route [Inhibitor]: ORAL, Species: RAT, Strain/Sex: F344/FEMALE, Target Tissue: Type of Lesion: URINARY BLADDER: TUMOR, Dose [Carcinogen]: 150 MG IN 0.5 ML 20% ETHANOL 2X/WK FOR 8 WK (STUDY DURATION: 36 WK), Promoter: NONE): 17/30 (57%), 6/29 (21%), 63%, significance level not shown
- tumour outcome (control, treated, inhibition, significance) (Carcinogen: N-BUTYL-N-N(4-4-HYDROXYBUTYL)-NITROSAMINE [3817-11-6], Dose [Inhibitor]: 1250 MG/KG IN DIET FOR 36 WK BEGINNING 1 WK PRIOR TO FIRST CARCINOGEN DOSE (STUDY DURATION: 36 WK), Route [Inhibitor]: ORAL, Species: MOUSE, Strain/Sex: B6D2F1/MALE, Target Tissue: Type of Lesion: URINARY BLADDER: TUMOR, Dose [Carcinogen]: 7.5 MG IN 0.1 ML 20% ETHANOL 1X/WK FOR 12 WK (STUDY DURATION: 36 WK), Promoter: NONE): 51%, 12%, 76%, significance level not shown
- outcome (Carcinogen: N-nitrosodiethylamine (55-18-5), Dose [Inhibitor]: 1500 mg/kg in diet for 38 wk, study duration 38 wk, Route [Inhibitor]: Oral, Species: Rat, Strain/Sex: Wistar/Male, Target Tissue: Type of Lesion: Liver: Neoplasia, Dose [Carcinogen]: 100 mg/l in drinking water for 4 mo, Promoter: None): 91.7, 65.2, p<0.05

SMILES: O[C@@H](CS)[C@@H](O)CS
- tumour outcome (control, treated, inhibition, significance) (Carcinogen: TRANS-5-AMINO-3-[2-(5-NITRO-2-FURYL)VINYL]-1,2,4-OXADIAZOLE;SQL8506, 28754-68-9, Carcinogen: TRANS-5-AMINO-3-[2-(5-NITRO-2-FURYL)VINYL]-1,2,4-OXADIAZOLE;SQL8506, 28754-68-9, Dose [Inhibitor]: 100 MG/KG 16 HR BEFORE THE 1ST CARCINOGEN DOSE FOLLOWED BY ADDITIONAL INJECTIONS IMMEDIATELY BEFORE EACH DOSE OF CARCINO, Route [Inhibitor]: INTRAPERITONEAL, Species: MOUSE, Strain/Sex: CD-1/FEMALE, Target Tissue: Type of Lesion: HEMATOPOIETIC SYSTEM: MYELOID LEUKEMIA, Dose [Carcinogen]: 1 G/KG 2/D FOR 5 D EVERY 4 WK FOR 3 COURSES OF TREATMENT, Promoter: NONE USED): 7/137 (5%), 0/30 (0%), 100%, not calculated
- tumour outcome (control, treated, inhibition, significance) (Carcinogen: TRANS-5-AMINO-3-[2-(5-NITRO-2-FURYL)VINYL]-1,2,4-OXADIAZOLE;SQL8506, 28754-68-9, Carcinogen: TRANS-5-AMINO-3-[2-(5-NITRO-2-FURYL)VINYL]-1,2,4-OXADIAZOLE;SQL8506, 28754-68-9, Dose [Inhibitor]: 100 MG/KG 16 HR BEFORE THE 1ST CARCINOGEN DOSE FOLLOWED BY ADDITIONAL INJECTIONS IMMEDIATELY BEFORE EACH DOSE OF CARCINO, Route [Inhibitor]: INTRAPERITONEAL, Species: MOUSE, Strain/Sex: CD-1/FEMALE, Target Tissue: Type of Lesion: LYMPHOID TISSUE: NONTHYMIC LYMPHOMA, Dose [Carcinogen]: 1 G/KG 2/D FOR 5 D EVERY 4 WK FOR 3 COURSES OF TREATMENT, Promoter: NONE USED): 8/137 (6%), 2/30 (7%), -17%, not calculated
- tumour outcome (control, treated, inhibition, significance) (Carcinogen: TRANS-5-AMINO-3-[2-(5-NITRO-2-FURYL)VINYL]-1,2,4-OXADIAZOLE;SQL8506, 28754-68-9, Carcinogen: TRANS-5-AMINO-3-[2-(5-NITRO-2-FURYL)VINYL]-1,2,4-OXADIAZOLE;SQL8506, 28754-68-9, Dose [Inhibitor]: 100 MG/KG 16 HR BEFORE THE 1ST CARCINOGEN DOSE FOLLOWED BY ADDITIONAL INJECTIONS IMMEDIATELY BEFORE EACH DOSE OF CARCINO, Route [Inhibitor]: INTRAPERITONEAL, Species: MOUSE, Strain/Sex: CD-1/FEMALE, Target Tissue: Type of Lesion: LYMPHOID TISSUE: THYMIC LYMPHOMA, Dose [Carcinogen]: 1 G/KG 2/D FOR 5 D EVERY 4 WK FOR 3 COURSES OF TREATMENT, Promoter: NONE USED): 22/137 (16%), 4/30 (13%), 19%, not calculated
- tumour outcome (control, treated, inhibition, significance) (Carcinogen: TRANS-5-AMINO-3-[2-(5-NITRO-2-FURYL)VINYL]-1,2,4-OXADIAZOLE;SQL8506, 28754-68-9, Carcinogen: TRANS-5-AMINO-3-[2-(5-NITRO-2-FURYL)VINYL]-1,2,4-OXADIAZOLE;SQL8506, 28754-68-9, Dose [Inhibitor]: 100 MG/KG 16 HR BEFORE THE 1ST CARCINOGEN DOSE FOLLOWED BY ADDITIONAL INJECTIONS IMMEDIATELY BEFORE EACH DOSE OF CARCINO, Route [Inhibitor]: INTRAPERITONEAL, Species: MOUSE, Strain/Sex: CD-1/FEMALE, Target Tissue: Type of Lesion: STOMACH: SQUAMOUS CARCINOMA, Dose [Carcinogen]: 1 G/KG 2/D FOR 5 D EVERY 4 WK FOR 3 COURSES OF TREATMENT, Promoter: NONE USED): 60/137 (44%), 18/30 (60%), -36%, not calculated
